Measured values taken from ChEMBL document CHEMBL1143946, “Docking analyses on human muscarinic receptors: unveiling the subtypes peculiarities in agonists binding” (Bioorg Med Chem, 2008).

How the values were obtained:
Test in all cases: biochemical
[1] = target: T1, Muscarinic acetylcholine receptor M1 (Homo sapiens, UniProt P11229)
T1 sequence (P11229 whole entry): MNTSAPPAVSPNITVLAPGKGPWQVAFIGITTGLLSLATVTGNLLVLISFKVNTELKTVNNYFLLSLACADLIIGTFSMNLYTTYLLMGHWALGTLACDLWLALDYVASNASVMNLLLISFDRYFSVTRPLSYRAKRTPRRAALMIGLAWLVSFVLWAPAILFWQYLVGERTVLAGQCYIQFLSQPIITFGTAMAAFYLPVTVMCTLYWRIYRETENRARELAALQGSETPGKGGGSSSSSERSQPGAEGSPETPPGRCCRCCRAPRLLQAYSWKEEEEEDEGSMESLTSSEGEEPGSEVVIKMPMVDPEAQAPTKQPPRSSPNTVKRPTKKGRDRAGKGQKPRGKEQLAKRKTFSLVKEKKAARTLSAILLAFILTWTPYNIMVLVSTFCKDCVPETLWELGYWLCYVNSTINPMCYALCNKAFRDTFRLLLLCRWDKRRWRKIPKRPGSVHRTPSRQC

[2] = target: T2, Muscarinic acetylcholine receptor M2 (Homo sapiens, UniProt P08172)
T2 sequence (P08172 whole entry): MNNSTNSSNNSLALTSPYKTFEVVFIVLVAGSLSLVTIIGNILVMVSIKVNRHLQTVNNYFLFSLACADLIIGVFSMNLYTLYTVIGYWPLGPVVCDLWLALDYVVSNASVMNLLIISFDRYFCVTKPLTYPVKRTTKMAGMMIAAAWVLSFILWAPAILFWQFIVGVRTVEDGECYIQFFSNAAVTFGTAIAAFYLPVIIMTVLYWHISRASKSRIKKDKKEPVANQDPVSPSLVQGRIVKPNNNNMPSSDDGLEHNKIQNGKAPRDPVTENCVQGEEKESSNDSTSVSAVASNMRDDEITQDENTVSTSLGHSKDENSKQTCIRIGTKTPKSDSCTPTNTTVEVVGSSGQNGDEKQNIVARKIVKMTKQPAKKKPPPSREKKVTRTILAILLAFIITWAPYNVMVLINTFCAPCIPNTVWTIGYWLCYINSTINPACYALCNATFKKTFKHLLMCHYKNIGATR

[3] = target: T3, Muscarinic acetylcholine receptor M5 (Homo sapiens, UniProt P08912)
T3 sequence (P08912 whole entry): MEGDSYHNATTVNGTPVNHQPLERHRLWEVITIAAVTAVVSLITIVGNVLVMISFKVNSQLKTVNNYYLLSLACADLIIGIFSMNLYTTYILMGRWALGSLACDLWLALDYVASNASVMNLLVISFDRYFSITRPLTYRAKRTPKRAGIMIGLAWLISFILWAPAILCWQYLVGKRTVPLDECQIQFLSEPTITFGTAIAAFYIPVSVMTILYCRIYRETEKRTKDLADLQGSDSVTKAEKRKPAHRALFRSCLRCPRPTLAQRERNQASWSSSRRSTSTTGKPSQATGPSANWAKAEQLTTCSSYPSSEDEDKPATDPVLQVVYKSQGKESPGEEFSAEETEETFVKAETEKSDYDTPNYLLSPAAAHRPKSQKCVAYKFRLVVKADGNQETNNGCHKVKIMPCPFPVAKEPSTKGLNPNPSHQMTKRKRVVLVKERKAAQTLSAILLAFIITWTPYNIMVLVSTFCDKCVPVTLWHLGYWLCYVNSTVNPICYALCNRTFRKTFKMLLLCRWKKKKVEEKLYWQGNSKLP
Description: Binding affinity to human cloned muscarinic M5 receptor expressed in CHO cells

## C[C@H]1OC[C@@H](C[N+](C)(C)C)O1
[1]
  Ki: 11 µM
[2]
  Ki: 1200 nM
[3]
  Ki: 21.9 µM

## Cc1nccn1CC#CCOc1ccon1
[1]
  Ki: 0.0912 µM
[2]
  Ki: 3.63 nM
[3]
  Ki: 0.00617 µM

## C[C@@H]1O[C@H]([C@H]2CCC[N+]2(C)C)CS1
[1]
  Ki: 19.1 µM
[2]
  Ki: 5250 nM
[3]
  Ki: 24.5 µM

## C[C@@H]1O[C@H]([C@@H]2CCC[N+]2(C)C)CS1
[1]
  Ki: 14.1 µM
[2]
  Ki: 3550 nM
[3]
  Ki: 23.4 µM

## C[C@H]1O[C@@H]([C@H]2CCC[N+]2(C)C)CS1
[1]
  Ki: 5.89 µM
[2]
  Ki: 1410 nM
[3]
  Ki: 10.7 µM

## C[C@H]1OC[C@@H]([C@H]2CCC[N+]2(C)C)O1
[1]
  Ki: 52.5 µM
[2]
  Ki: 5010 nM
[3]
  Ki: 52.5 µM

## C[C@H]1O[C@@H]([C@@H]2CCC[N+]2(C)C)CS1
[1]
  Ki: 8.32 µM
[2]
  Ki: 676 nM
[3]
  Ki: 10.2 µM

## C[C@H]1COC[C@@H](C[N+](C)(C)C)O1
[2]
  Ki: 37200 nM
[3]
  Ki: 3.72 µM

## CC(=O)OC1CC2CCCC1N2C (configuration not stated)
[1]
  Ki: 282 µM
[2]
  Ki: 2750 nM

## C[C@@H]1O[C@H](C[N+](C)(C)C)CS1
[1]
  Ki: 11 µM
[2]
  Ki: 2090 nM
[3]
  Ki: 13.2 µM

## C[C@H]1OC[C@@H]([C@@H]2CCC[N+]2(C)C)O1
[1]
  Ki: 21.4 µM
[2]
  Ki: 1700 nM
[3]
  Ki: 22.9 µM

## C[C@H]1O[C@@H]([C@@H]2CCC[N+]2(C)C)C[S+]1[O-] (some centres not stated)
[2]
  Ki: 77600 nM

## CC(=O)OC1CC2CCCC1N2 (configuration not stated)
[1]
  Ki: 21.4 µM
[2]
  Ki: 2.63 nM

## Cc1nccn1CC#CCN1CCCC1=O
[1]
  Ki: 0.12 µM
[2]
  Ki: 102 nM
[3]
  Ki: 0.0513 µM

## C[C@@H]1O[C@H]([C@@H]2CCC[N+]2(C)C)C[S+]1[O-] (stereo in doubt; 9)
[2]
  Ki: 9330 nM

## C[C@@H]1O[C@H]([C@@H]2CCC[N+]2(C)C)C[S+]1[O-] (stereo in doubt; 11)
[1]
  Ki: 93.3 µM
[2]
  Ki: 15500 nM
[3]
  Ki: 33.9 µM

## C[C@@H]1O[C@H]([C@@H]2CCC[N+]2(C)C)C[S+]1[O-] (stereo in doubt; 12)
[2]
  Ki: 81300 nM
[3]
  Ki: 57.5 µM

## CO/N=C/C1=CCCN(C)C1 [MILAMELINE]
[1]
  Ki: 5.62 µM
[2]
  Ki: 1000 nM
[3]
  Ki: 3.16 µM

## C[N+](C)(C)CC#CCN1CCCC1=O [OXOTREMORINE METHIODIDE]
[1]
  Ki: 20.4 µM
[2]
  Ki: 107 nM

## O=C1CCCN1CC#CCN1CCCC1 [OXOTREMORINE]
[1]
  Ki: 0.00112 µM
[2]
  Ki: 324 nM

## CO/N=C(\C#N)[C@H]1CN2CCC1CC2 [SABCOMELINE]
[1]
  Ki: 0.229 µM
[2]
  Ki: 204 nM
